Source: US12691070B2, “Cationic lipids and preparation method thereof” (RiboX Therapeutics HK Limited, priority 2023, dated 2026)

Columns and labels:
[1] = LNP size and polydispersity index (PDI) by dynamic light scattering; assay type: physicochemical; details: LNP with cirRNA (SEQ ID NO: 1); for Size: in nm (unit assumed)
In short: (§1)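 Ribogreen fluorescence with and without Triton X-100 gave encapsulation as 100% − (intact/lysed) signal; DLS size, PDI and zeta potential measured on a Zetasizer. Particles: 50:10:38.5:1.5 lipid mix, luciferase circRNA or mRNA, lipid:nucleotide 15 or 6, microfluidic assembly at pH 4.5, PBS-dialyzed.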

[2] = LNP zeta potential (Zetasizer); assay type: physicochemical; details: LNP with cirRNA (SEQ ID NO: 1)
In short: as §1

[3] = RNA encapsulation efficacy by Quant-IT Ribogreen kit; assay type: physicochemical; details: LNP with cirRNA (SEQ ID NO: 1)
In short: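 Encapsulation efficacy came from Ribogreen fluorescence of LNPs compared with Triton X-100-lysed LNPs. The particles carried luciferase-encoding circular or linear RNA at an ionizable lipid:ribonucleotide ratio of 15 or 6.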

Hep G2 cells [4] = experiment: In vitro expression of firefly-luciferase, Hep G2; assay type: cell-based; details: cirRNA (SEQ ID NO: 1) LNPs; firefly-luciferase luminescence; Hep G2 cells
In short: (§2)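 Transfection used 100 ng/mL luciferase-encoding RNA-LNPs; activity in lysates was determined at 72 h.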

RAW 264.7 cells [5] = experiment: In vitro expression of firefly-luciferase, RAW 264.7; assay type: cell-based; details: cirRNA (SEQ ID NO: 1) LNPs; firefly-luciferase luminescence; RAW 264.7 cells
In short: as §2

Hep G2 cells [6] = experiment: In vitro toxicity (CellTiter-Glo cell viability), Hep G2; assay type: cell-based; details: cirRNA (SEQ ID NO: 1) LNPs; Hep G2 cells;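 note: percent of untreated cells luminescence signal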
In short: (§3)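 Viability after a 72 h incubation with 1 μg/mL RNA-LNP formulations was assessed luminometrically using CellTiter-Glo.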

RAW 264.7 cells [7] = experiment: In vitro toxicity (CellTiter-Glo cell viability), RAW 264.7; assay type: cell-based; details: cirRNA (SEQ ID NO: 1) LNPs; RAW 264.7 cells;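 note: percent of untreated cells luminescence signal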
In short: as §3

BALB/C mice = experiment: In vivo expression, whole-body luminescence (IVIS); details: cirRNA (SEQ ID NO: 1) LNPs, BALB/C mice
Description: 6-8 week old, female BALB/C mice were injected with 0.05 mg*kg-1 of RNA-LNPs encoding for firefly-luciferase by intravenous injection. At 6 hours post injection, animals were intraperitoneally injected with 15 mg/ml of Luciferin substrate and whole-body luminescence was determined by a bioluminescent in vivo imaging system (IVIS).

Compound | PDI [1] | Size [1] | Zeta (mV) [2] | Encapsulation Efficiency % [3] | In vitro Expression HepG2 (Hep G2 cells [4]) | In vitro Expression RAW (RAW 264.7 cells [5]) | In vitro Viability HepG2 (Hep G2 cells [6]) | In vitro Viability RAW (RAW 264.7 cells [7]) | In vivo Expression (Whole Body) (BALB/C mice)
CCCCC/C=C\C/C=C\CCCCCCCCN(CCCCCCCC(=O)OC(CCCCCCCC)CCCCCCCC)CCCOC(=O)NCCN1CCOCC1 [Lipid 274] | 0.112 | 50.6 | −2.714 mV | 94% | 4.11E+06 | 4.30E+05 | 97% | 127% | 2.06E+07
CCCCC/C=C\C/C=C\CCCCCCCCN(CCCCCCCC(=O)OC(CCCCCCCC)CCCCCCCC)CCCOC(=O)NCCCN(C)C [Lipid 275] | 0.2727 | 60 | 6.337 mV | 95% | 7.54E+06 | 4.30E+05 | 102% | 129% | 3.66E+06
CCCCC/C=C\C/C=C\CCCCCCCCN(CCCCCCCC(=O)OC(CCCCCCCC)CCCCCCCC)CCCOC(=O)NCCN1CCCC1 [Lipid 277] | 0.2188 | 76.75 | −0.6853 mV | 92% | 1.17E+07 | 8.13E+06 | 89% | 121% | 7.29E+07
CCCCCCCCC(CCCCCCCC)OC(=O)CCCCCCCN(CCCCCCCCOC(=O)C(CCCCCC)CCCCCCCC)CCNC(=O)OCCN(C)C (stereo not drawn) [Lipid 279] | 0.2722 | 87.32 | −0.06404 mV | 95% | 5.05E+06 | 1.62E+05 | 23% | 55% | 3.67E+07
CCCCCCCCC(CCCCCCCC)OC(=O)CCCCCCCN(CCCCCCCCOC(=O)C(CCCCCC)CCCCCCCC)CCCOC(=O)NCc1ncc[nH]1 (stereo not drawn) [Lipid 345] | 0.1901 | 70.01 | −2.69 mV | 92% | 2.57E+06 | 2.20E+05 | 99% | 102% | 2.49E+06
CCCCCCCCC(CCCCCCCC)OC(=O)CCCCCCCN(CCCCCCCCOC(=O)C(CCCCCC)CCCCCCCC)CCCOC(=O)NCCN1CCN(C)CC1 (stereo not drawn) [Lipid 347] | 0.2462 | 90.56 | −0.6677 mV | 94% | 1.04E+06 | 4.27E+04 | 92% | 96% | 7.61E+06
CCCCCCCCC(CCCCCCCC)OC(=O)CCCCCCCN(CCCCCCCCOC(=O)C(CCCCCC)CCCCCCCC)CCCOC(=O)NCCc1ncc[nH]1 (stereo not drawn) [Lipid 349] | 0.1452 | 75.85 | 0.02482 mV | 97% | 2.42E+04 | 7.58E+03 | 90% | 87% | 1.01E+07
CCCCCCCCC(CCCCCCCC)OC(=O)CCCCCCCN(CCCCCCCCOC(=O)C(CCCCCC)CCCCCCCC)CCCOC(=O)NCCN1CCC1 (stereo not drawn) [Lipid 353] | 0.2483 | 116.6 | 4.334 mV | 95% | 4.17E+04 | 3.38E+03 | 37% | 40% | 1.48E+06
CCCCCCCCCC(=O)OCCCCCCCN(CCCCCCCCOC(=O)C(CCCCCC)CCCCCCCC)CCOC(=O)NCCCN1CCCCC1 (stereo not drawn) [Lipid 358] | 0.1606 | 81.33 | 1.109 mV | 87% | 1.88E+05 | 9.81E+03 | 121% | 83% | 2.29E+07
CCCCCCCCC(CCCCCCCC)OC(=O)CCCCCCCN(CCCCCCCCOC(=O)C(CCCCCC)CCCCCCCC)CCCNCCN(C)C (stereo not drawn) [Lipid 363] | 0.2547 | 130.7 | 5.356 mV | 92% | 3.17E+05 | 9.15E+03 | 112% | 65% | 2.22E+06
CCCCCCCCCCC(CCCCCCCC)COC(=O)CCCCCN(CCCCCCCCOC(=O)C(CCCCCC)CCCCCCCC)CCCOC(=O)NCCN(C)C (stereo not drawn) [Lipid 364] | 0.2481 | 113.5 | 0.2395 mV | 89% | 1.11E+06 | 9.94E+04 | 81% | 64% | 4.73E+06

The next lines start with results.

PDI [1] | Size [1] | Zeta (mV) [2] | Encapsulation Efficiency % [3] | Compound | In vitro Expression HepG2 (Hep G2 cells [4]) | In vitro Expression RAW (RAW 264.7 cells [5]) | In vitro Viability HepG2 (Hep G2 cells [6]) | In vitro Viability RAW (RAW 264.7 cells [7]) | In vivo Expression (Whole Body) (BALB/C mice)
0.264 | 111.1 | −0.00452 mV | 95% | CCCCCCCCC(CCCCCCCC)OC(=O)CCCCCCCN(CCCCCCCCOC(=O)C(CCCCCC)CCCCCCCC)CCCOC(=O)NCCCN(CC)CC (stereo not drawn) [Lipid 346] | 1.02E+06 | 1.46E+05 | 73% | 93% | 3.59E+06
0.2834 | 64.55 | 8.299 mV | 90% | CCCCCCCCCC(=O)OCCCCCCCN(CCCCCCCCOC(=O)C(CCCCCC)CCCCCCCC)CCCOC(=O)NCCCN(C)C (stereo not drawn) [Lipid 355] | 1.70E+03 | 9.80E+02 | 123% | 72% | 7.94E+05
0.423 | 336.5 | −0.5834 mV | 77% | CCCCCCCCCC(=O)OCCCCCCCN(CCCCCCCCOC(=O)C(CCCCCC)CCCCCCCC)CCCOC(=O)NCCCn1ccnc1 (stereo not drawn) [Lipid 356] | 1.96E+03 | 1.06E+04 | 112% | 84% | 5.24E+05
0.3136 | 104.3 | 6.34 mV | 87% | CCCCCCCCCC(=O)OCCCCCCCN(CCCCCCCCOC(=O)C(CCCCCC)CCCCCCCC)CCCOC(=O)NCCN1CCCC1 (stereo not drawn) [Lipid 357] | 2.53E+05 | 7.92E+03 | 120% | 8% | 1.85E+06
0.337 | 113.9 | 6.547 mV | 89% | CCCCCCCCCC(=O)OCCCCCCCN(CCCCCCCCOC(=O)C(CCCCCC)CCCCCCCC)CCCOC(=O)NCCN(C)C (stereo not drawn) [Lipid 359] | 9.26E+04 | 2.38E+03 | 122% | 8% | 1.85E+06
0.2143 | 82.84 | −2.27 mV | 85% | CCCCCCCCCC(=O)OCCCCCCCN(CCCCCCCCOC(=O)C(CCCCCC)CCCCCCCC)CCCOC(=O)NCc1ncc[nH]1 (stereo not drawn) [Lipid 360] | 1.22E+05 | 1.63E+05 | 113% | 86% | 7.50E+07
0.438 | 91.91 | 8.107 mV | 88% | CCCCCCCCCC(=O)OCCCCCCCN(CCCCCCCCOC(=O)C(CCCCCC)CCCCCCCC)CCCOC(=O)NCCCN(CC)CC (stereo not drawn) [Lipid 361] | 1.62E+05 | 2.97E+03 | 114% | 4% | 1.10E+06
0.3944 | 88.25 | 11.87 mV | 89% | CCCCCCCCCC(=O)OCCCCCCCN(CCCCCCCCOC(=O)C(CCCCCC)CCCCCCCC)CCCOC(=O)NCCN1CCN(C)CC1 (stereo not drawn) [Lipid 362] | 3.82E+04 | 1.99E+03 | 106% | 0% | 1.68E+06
